Reference: patent publication US10906977B2, “Enhancing the therapeutic activity of immune checkpoint inhibitor” (Maine Medical Center Research Institute, priority 2016, dated 2021)

Experiments:
[1] = system: chick chorioallantoic membrane (CAM); test: Chick CAM inflammation induced by soluble RGD collagen peptides; assay type: in vivo; details: FIG. 5D
Description: (§1) The chick chorioallantoic membrane (CAM) assays were carried out with some modifications (19). For all experiments CAMs of 10-day-old chick embryos obtained from Charles River (North Franklin, Conn.) were separated from the shell membrane. Filter discs either non-treated (inflammation assays) pretreated (angiogenesis assays) with cortisone acetate (3.0 mg/ml) containing RPMI only or FGF-2 (40 ng). CAMs were either non-treated or treated topically with Mab XL313, XL166 or a non-specific control antibody (10 μg/embryo every 24 h for three consecutive treatments). […] At the end of the incubation period the embryos were sacrificed and the CAM tissues were analyzed. Angiogenesis was quantified by counting the number of angiogenic branching blood vessels within the area of the filter disc. The angiogenic index was determined by subtracting the mean number of blood vessel branch points from untreated CAMs from each experimental condition. Eight to twelve embryos were used per condition and experiments were repeated at least three times.

[2] = system: chick chorioallantoic membrane (CAM); test: Chick CAM angiogenesis induced by soluble RGD collagen peptides; assay type: in vivo; details: soluble peptide; FIG. 5C
Description: as §1

[3] = system: human microvascular endothelial cells (HMVEC); test: Cell adhesion to immobilized collagen RGD peptides; assay type: cell-based; details: peptide immobilized 100 μg/ml
Description: (§2) RGD peptides (P-1, P-2, P-3, P-4, P-5, and P-C) were immobilized (100 μg/ml) to wells. HUVEC, HMVEC, HRMVEC, and HDF cells were suspended in adhesion buffer (RPMI containing 1 mM MgCl2, 0.2 mM MnCl2 and 0.5% BSA) and 1×10^5 cells were seeded into the wells in the presence or absence of P4C10, LM609, P1F6 or control antibodies (100 μg/ml). Cells were allowed to attach for 25 min at 37° C. Media containing non-attached cells was aspirated and attached cells were washed with PBS and stained with crystal violet. Cell adhesion was quantified by measuring the optical density of eluted dye. Adhesion assays were completed at least three times with triplicate wells.

[4] = system: human umbilical vein endothelial cell (HUVEC); test: Cell adhesion to immobilized collagen RGD peptides; assay type: cell-based; details: peptide immobilized 100 μg/ml; FIG. 1A
Description: as §2

[5] = system: human dermal fibroblasts; test: Cell adhesion to immobilized collagen RGD peptides; assay type: cell-based; details: peptide immobilized 100 μg/ml
Description: as §2

[6] = system: human retinal microvascular endothelial cells (HRMVEC); test: Cell adhesion to immobilized collagen RGD peptides; assay type: cell-based; details: peptide immobilized 100 μg/ml
Description: as §2

[7] = system: fibroblasts; test: Growth factor-induced fibroblast migration on denatured collagen; assay type: cell-based, human; details: FGF-2 20 ng/ml; FIG. 22B, 22E, 24D
Description: Transwell membranes (8.0 um pore size) were coated with 5 μg/ml of native or denatured collagen for 12 hrs at […] as described previously (13). Migration buffer containing RPMI 1640, 1 mM MgCl2, 0.2 mM MnCl2 and 0.5% BSA in the presence or absence of 5× concentrated serum free SKOV-3 CM or 20 ng/ml FGF-2 was placed in the lower chambers. SKOV-3 or fibroblasts (1×105) were resuspended in migration buffer containing RPMI 1640, 1 mM MgCl2, 0.2 mM MnCl2 and 0.5% BSA in the presence or absence of antibodies directed to the HU177 epitope, or α10β1, (10 μg/ml) or 100 uM of the MEK inhibitor ([…]). Cells were added to the top chamber and allowed to migrate from 2 to 4 hrs. Cells remaining on the top of the membranes were removed and cells that had migrated to the underside of the membrane were quantified by direct cell counts of crystal violet stained cells or by measuring the optical density of eluted cell-associated crystal violet dye as previously described (15). Assays were completed at least 3×.

[8] = system: chick chorioallantoic membrane (CAM); test: Chick CAM inflammation assay, FGF-2 induced, no cortisone acetate; assay type: in vivo
Description: The chick chorioallantoic membrane (CAM) assays were carried out with some modifications (19). For all experiments CAMs of 10-day-old chick embryos obtained from Charles River (North Franklin, Conn.) were separated from the shell membrane. Filter discs either non-treated (inflammation assays) pretreated (angiogenesis assays) with cortisone acetate (3.0 mg/ml) containing RPMI only or FGF-2 (40 ng). CAMs were either non-treated or treated topically with Mab XL313, XL166 or a non-specific control antibody (10 μg/embryo every 24 h for three consecutive treatments). For peptide induction experiments, CAMs were stimulated with 100 ng/ml of the RGD peptides (P-1, P-2, P-C) in the presence or absence of the P38MAPK inhibitor, SB202190 (10 μM). At the end of the incubation period the embryos were sacrificed and the CAM tissues were analyzed. Angiogenesis was quantified by counting the number of angiogenic branching blood vessels within the area of the filter disc. The angiogenic index was determined by subtracting the mean number of blood vessel branch points from untreated CAMs from each experimental condition. Eight to twelve embryos were used per condition and experiments were repeated at least three times.
CAMs examined for accumulation of granulation tissue were harvested, fixed in 4% PFA and paraffin embedded and sectioned (4 μm) and stained with Giemsa. CAM tissues analyzed via immunofluorescence were harvested, embedded with OCT, snap frozen and sectioned ([…]). Frozen sections were fixed in 50% methanol/50% acetone, air dried and blocked with 2.5% BSA for 1 h at 37° C. For expression of the XL313 and XL166 epitopes as well as monocyte/macrophages, FGF-2 stimulated CAM tissues were stained with Mabs XL313, XL166 (50 μg/ml) or KUL1 (1:250) and then incubated with Alexa-488 labeled secondary antibodies (1:2000 dilution). […] Using a similar strategy, sections of RGD peptide-treated CAM tissues were analyzed for phosphorylated-P38MAPK in angiogenic vessels by co-incubation of anti-phospho-P38MAPK (1:50) and anti-vWf (1:500) antibodies. […]

[9] = system: XL313 epitope; test: Circulating Mab XL313 reactive epitope in chick embryo serum (solid-phase ELISA); assay type: in vivo; details: serum collected three days after FGF-2 stimulation; FIG. 5A
Text: FIG. 5A-FIG. 5D are bar graphs depicting the induction of angiogenesis and inflammation in vivo by soluble RGDKGE (SEQ ID NO: 1) but not a related RGDAPG (SEQ ID NO: 11) containing collagen epitope. FIG. 5A is a bar graph depicting serum from chick embryos in which the CAMs had been either not stimulated (NT) or stimulated with FGF-2 was collected. Relative levels of circulating Mab XL313 reactive epitope were quantified by solid-phase ELISA. Data represent mean Mab XL313 reactivity±S.E (N=12 to 13). FIG. 5B is a bar graph depicting quantification of dose dependent induction of angiogenesis by RGDKGE (SEQ ID NO: 1) containing collagen peptide P-2. […] FIG. 5C is a bar graph depicting quantification of CAM angiogenesis associated with RGD containing collagen peptides P-1 (KGDRGDAPG; SEQ ID NO: 2), P-2 (QGPRGDKGE; SEQ ID NO: 3) or control peptide P-C (QGPSGSPGE; SEQ ID NO: 4). […] FIG. 5D is a bar graph depicting the quantification of CAM inflammation associated with RGD containing collagen peptides P-1 (KGDRGDAPG; SEQ ID NO: 2), P-2 (QGPRGDKGE; SEQ ID NO: 3) or control peptide P-C (QGPSGSPGE (SEQ ID NO: 4)). […]
Due to the differential expression and bio-distribution of the RGDKGE (SEQ ID NO: 1) epitope in angiogenic CAM tissues and its expression in macrophage-conditioned medium, it was determined whether a soluble circulating form of this RGDKGE (SEQ ID NO: 1) epitope could be generated. […]

[10] = target: T1, integrin αvβ3 on cells (HUVEC endothelial cells, M21 melanoma cells, human T-cells) (human, UniProt P06756 31-1048; P05106 27-788); test: HUVEC adhesion to immobilized peptides with function blocking anti-integrin antibodies
T1 construct: whole, on cells; Endogenous receptor on the cells used in adhesion and signalling assays; also called β3 integrin
T1 sequence (P06756 31-1048, chain 1 of 2): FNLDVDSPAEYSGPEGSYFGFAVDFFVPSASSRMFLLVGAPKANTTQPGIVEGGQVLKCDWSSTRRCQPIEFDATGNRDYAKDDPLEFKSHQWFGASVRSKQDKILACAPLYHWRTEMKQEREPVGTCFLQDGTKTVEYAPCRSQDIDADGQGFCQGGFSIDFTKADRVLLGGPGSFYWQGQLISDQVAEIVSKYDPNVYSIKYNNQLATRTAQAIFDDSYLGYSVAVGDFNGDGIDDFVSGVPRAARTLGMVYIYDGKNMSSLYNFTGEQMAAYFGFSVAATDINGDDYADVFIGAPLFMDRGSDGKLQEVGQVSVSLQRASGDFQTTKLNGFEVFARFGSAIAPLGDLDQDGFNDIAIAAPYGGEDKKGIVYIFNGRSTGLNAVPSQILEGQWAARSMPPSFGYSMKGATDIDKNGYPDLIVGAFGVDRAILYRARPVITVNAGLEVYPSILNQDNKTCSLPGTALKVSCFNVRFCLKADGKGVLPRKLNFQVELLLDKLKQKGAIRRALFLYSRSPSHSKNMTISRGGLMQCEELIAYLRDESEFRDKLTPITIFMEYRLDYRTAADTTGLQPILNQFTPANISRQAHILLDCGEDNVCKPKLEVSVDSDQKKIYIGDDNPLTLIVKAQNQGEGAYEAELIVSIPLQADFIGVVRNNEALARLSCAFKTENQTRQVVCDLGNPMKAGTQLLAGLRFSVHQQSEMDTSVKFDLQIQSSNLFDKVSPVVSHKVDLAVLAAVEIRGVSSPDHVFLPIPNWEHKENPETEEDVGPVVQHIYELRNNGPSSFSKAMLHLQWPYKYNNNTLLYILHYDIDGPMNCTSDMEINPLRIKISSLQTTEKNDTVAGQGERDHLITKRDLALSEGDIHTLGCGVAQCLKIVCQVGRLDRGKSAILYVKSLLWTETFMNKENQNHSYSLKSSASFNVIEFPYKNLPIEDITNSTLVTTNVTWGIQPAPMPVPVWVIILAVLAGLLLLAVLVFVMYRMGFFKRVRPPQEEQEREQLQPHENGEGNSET
T1 sequence (P05106 27-788, chain 2 of 2): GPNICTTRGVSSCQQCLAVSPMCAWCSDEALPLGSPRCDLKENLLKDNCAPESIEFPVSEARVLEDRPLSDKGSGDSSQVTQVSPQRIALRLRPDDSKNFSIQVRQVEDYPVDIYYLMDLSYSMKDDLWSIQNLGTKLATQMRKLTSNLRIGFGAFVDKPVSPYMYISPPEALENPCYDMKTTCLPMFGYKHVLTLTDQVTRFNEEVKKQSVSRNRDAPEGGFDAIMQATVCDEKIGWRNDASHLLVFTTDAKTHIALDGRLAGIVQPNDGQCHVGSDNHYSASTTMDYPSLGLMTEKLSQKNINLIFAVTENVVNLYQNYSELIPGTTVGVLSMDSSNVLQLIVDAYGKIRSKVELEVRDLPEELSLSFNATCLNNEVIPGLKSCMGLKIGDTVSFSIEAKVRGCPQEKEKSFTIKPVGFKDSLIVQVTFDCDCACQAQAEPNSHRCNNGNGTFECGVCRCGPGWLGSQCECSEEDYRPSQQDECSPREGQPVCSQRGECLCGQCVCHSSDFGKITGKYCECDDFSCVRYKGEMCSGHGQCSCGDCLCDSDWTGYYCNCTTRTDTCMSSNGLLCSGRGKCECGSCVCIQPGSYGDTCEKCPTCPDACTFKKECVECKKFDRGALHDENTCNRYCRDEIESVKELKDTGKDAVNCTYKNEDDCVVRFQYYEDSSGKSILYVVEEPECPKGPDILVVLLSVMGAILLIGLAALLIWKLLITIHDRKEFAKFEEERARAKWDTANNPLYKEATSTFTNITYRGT
Description: as §2, with “µg/ml)” for “μg/ml)”, “µg/ml).” for “μg/ml).”
Example 8: Collagen Peptide P-2 Binds and Activates αvβ3 and Stimulates P38MAPK Activation in a Src Dependent Manner It is well established that multiple integrins recognize RGD amino acid motifs within ECM proteins. However, the ability of an integrin to bind distinct RGD epitopes depends in part on its orientation within the parent molecule and the C-terminal amino acid sequences flanking the RGD motif (25-27). Potential cell surface receptors that mediate interactions with the RGDKGE (SEQ ID NO: 1) containing collagen P-2 peptide were identified. The ability of endothelial cells to bind the RGD collagen peptides P-1 and P-2 in the presence or absence of function blocking anti-integrin antibodies was examined.

[11] = target: T2, integrin αvβ3 (recombinant) (UniProt P06756 31-992; P05106 27-718); test: solid-phase binding assay, integrin on immobilized PGF peptide (100 ug/ml)
T2 construct: Bought recombinant integrin; also called recombinant integrin receptor αvβ3
T2 sequence (P06756 31-992 limits assumed, chain 1 of 2): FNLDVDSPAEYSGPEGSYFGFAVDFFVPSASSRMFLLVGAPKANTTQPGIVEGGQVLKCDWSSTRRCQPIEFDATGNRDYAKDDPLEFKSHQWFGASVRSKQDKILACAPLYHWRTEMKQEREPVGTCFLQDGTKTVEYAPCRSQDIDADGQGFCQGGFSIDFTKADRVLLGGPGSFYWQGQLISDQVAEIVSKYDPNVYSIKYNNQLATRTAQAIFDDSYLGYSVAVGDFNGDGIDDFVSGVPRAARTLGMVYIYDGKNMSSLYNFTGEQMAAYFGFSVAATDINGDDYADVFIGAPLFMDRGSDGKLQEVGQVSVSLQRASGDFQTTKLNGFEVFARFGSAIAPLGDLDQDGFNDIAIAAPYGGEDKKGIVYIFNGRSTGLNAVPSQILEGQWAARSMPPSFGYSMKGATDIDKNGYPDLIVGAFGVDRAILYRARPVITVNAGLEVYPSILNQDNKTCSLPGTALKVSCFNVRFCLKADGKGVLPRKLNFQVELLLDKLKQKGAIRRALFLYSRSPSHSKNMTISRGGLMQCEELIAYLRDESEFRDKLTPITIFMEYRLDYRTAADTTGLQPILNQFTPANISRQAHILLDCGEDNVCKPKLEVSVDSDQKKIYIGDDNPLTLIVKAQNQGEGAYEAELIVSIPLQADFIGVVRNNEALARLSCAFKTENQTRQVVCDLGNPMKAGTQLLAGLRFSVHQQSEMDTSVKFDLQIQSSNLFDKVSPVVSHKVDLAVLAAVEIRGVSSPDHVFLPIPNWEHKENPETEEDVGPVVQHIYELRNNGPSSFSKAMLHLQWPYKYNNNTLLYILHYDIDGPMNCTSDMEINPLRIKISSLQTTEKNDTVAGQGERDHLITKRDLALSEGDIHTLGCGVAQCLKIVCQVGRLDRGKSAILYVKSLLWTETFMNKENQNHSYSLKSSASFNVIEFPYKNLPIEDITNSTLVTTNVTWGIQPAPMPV
T2 sequence (P05106 27-718 limits assumed, chain 2 of 2): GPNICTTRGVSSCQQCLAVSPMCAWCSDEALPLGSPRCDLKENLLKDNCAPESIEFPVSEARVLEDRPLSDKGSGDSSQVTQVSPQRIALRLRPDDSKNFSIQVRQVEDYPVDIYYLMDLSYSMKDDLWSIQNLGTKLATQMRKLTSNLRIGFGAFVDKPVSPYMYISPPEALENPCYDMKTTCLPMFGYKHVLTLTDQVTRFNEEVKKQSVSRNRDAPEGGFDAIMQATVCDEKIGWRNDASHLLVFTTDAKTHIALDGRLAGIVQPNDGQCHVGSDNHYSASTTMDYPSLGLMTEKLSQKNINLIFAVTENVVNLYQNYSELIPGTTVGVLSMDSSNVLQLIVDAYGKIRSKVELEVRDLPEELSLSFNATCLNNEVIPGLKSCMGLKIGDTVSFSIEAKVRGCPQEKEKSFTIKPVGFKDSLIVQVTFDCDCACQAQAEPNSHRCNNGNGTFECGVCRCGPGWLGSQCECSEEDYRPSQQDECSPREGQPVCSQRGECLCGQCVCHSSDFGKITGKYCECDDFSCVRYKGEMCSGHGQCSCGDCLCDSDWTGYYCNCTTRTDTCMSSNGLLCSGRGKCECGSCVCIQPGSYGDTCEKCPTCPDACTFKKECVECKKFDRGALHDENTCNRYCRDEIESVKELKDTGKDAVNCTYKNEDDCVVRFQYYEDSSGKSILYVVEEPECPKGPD
Description: Plates were coated with 25 µg/ml of native or denatured (boiled 15 minutes) collagen. Collagen epitope peptide PGF and Cont-peptides were immobilized at 100 ug/ml. Integrins (0-2.0 µg/ml) were diluted in binding buffer containing 20 mM Tris, 15 mM NaCl, 1 mM MgCl2, 0.2 mM MnCl2, 0.5% BSA pH 7.4 as described (13). Integrins were allowed to bind for 1 hr and plates washed and incubated with anti-integrin antibodies (1:100 dilution) for 1 hr. Plates were washed and incubated with HRP-labeled secondary antibodies (1:5000 dilution). In a second assay, integrins (0.5 µg/ml) were coated in binding buffer and plates were washed, blocked as before and denatured (boiled 15 minutes) collagen was added (0-10.0 µg/ml). Denatured collagen was detected with anti-collagen antibody (1:1000). For integrin blocking ELISAs, wells were coated with denatured collagen and pre-treated (0.1 µg/ml) with anti-HU177 or control antibody. Following washing, wells were incubated with integrins (2.0 µg/ml) and binding was detected as described. Assays were carried out at least 3 times.

CQGPSGAPGEC [P-C, control peptide lacking the RGD tri-peptide motif, reference compound]
CAM inflammation following stimulation with peptide [1]: Minimal evidence of tissue inflammation
induction of CAM angiogenesis as compared to no treatment [2]: not
HMVEC adhesion to immobilized peptide [3]: failed to support interactions
HUVEC adhesion to immobilized peptide [4]: failed to support adhesion
human dermal fibroblast adhesion to immobilized peptide [5]: failed to support interactions
HRMVEC adhesion to immobilized peptide [6]: failed to support interactions

COc1cccc(-c2cc(=O)c3ccccc3o2)c1N [MEK inhibitor (PD98059), PD98059]
FGF-2 stimulated fibroblast migration on denatured collagen [7]: blocked

FGF-2: Fibroblast growth factor-2 from R&D Systems, used to stimulate CAMs
CAMs showing robust formation of thick granulation tissue ([8]; FGF-2 stimulation in the absence of cortisone acetate, FIG. 3E): approximately 50%
macrophage infiltration of the CAMs, enhancement as compared to control ([8]; FGF-2 stimulation without cortisone acetate, FIG. 3D): over 2 fold
increase in levels of circulating XL313 epitope [9]: 2 fold

CKGDRGDAPGC [Synthetic collagen RGD containing peptide P-1 (CKGDRGDAPGC)]
binding result [10]: binds

CPGFPGFC [Collagen PGF-peptide (CPGFPGFC), synthetic HU177 epitope]
binding result [11]: no binding
